From the Deep4Chem optical property database
Several values for one entry are separate records, joined by “and”; a condition that tells them apart may be missing. Equal values may be shown once.

Test: solvent given as SMILES

SMILES: CCOC(=O)/N=c1/oc2ccc(OC)cc2cc1C#N
- fluorescence lifetime (in ClCCl): 0.3 ns

SMILES: O=C1OC(=O)c2ccc(N(c3ccccc3)c3ccc4ccccc4c3)c3cccc1c23
- fluorescence lifetime (in C1CCOC1): 1.09 ns
- fluorescence lifetime (in CCCCCC): 8.42 ns
- fluorescence lifetime (in c1ccccc1): 8.55 ns

SMILES: C[Si](C)(C)C#CC(C#C[Si](C)(C)C)=Cc1ccc(C=C(C#C[Si](C)(C)C)C#C[Si](C)(C)C)cc1
- fluorescence lifetime (in ClC(Cl)Cl): 0.6 ns

SMILES: CN(C)c1ccc2nc3c(cc2c1)c(-c1ccccc1)nn3-c1ccccc1
- fluorescence lifetime (in C1CCCCC1): 16.1 ns
- fluorescence lifetime (in C1CCOC1): 21 ns
- fluorescence lifetime (in CC#N): 24.5 ns
- fluorescence lifetime (in CC(C)=O): 23.4 ns
- fluorescence lifetime (in CCCCCl): 20.1 ns
- fluorescence lifetime (in CCCCOCCCC): 18.4 ns
- fluorescence lifetime (in CN(C)C=O): 22.3 ns

SMILES: Cc1cc2cc3ccccc3cc2cn1
- fluorescence lifetime (in CCO): 18.7 ns

SMILES: Cc1cccc(-c2c3ccccc3cc3ccccc23)n1
- fluorescence lifetime (in ClCCl): 5.7 ns

SMILES: c1cc(N2CCCC2)ccn1
- fluorescence lifetime (in CC1CCCCC1): 11 ns

SMILES: Cc1c(C)c(B(c2c(C)c(C)c(C#N)c(C)c2C)c2c(C)c(C)c(N3c4ccccc4Oc4ccccc43)c(C)c2C)c(C)c(C)c1C#N
- fluorescence lifetime (in c1ccc([Si](c2ccccc2)(c2ccc(-n3c4ccccc4c4ccccc43)cc2)c2ccc(-n3c4ccccc4c4ccccc43)cc2)cc1): 32 ns

SMILES: CC1=C(c2cccs2)C(C)=[N+]2C1=C(c1ccccc1)c1c(C)c(-c3cccs3)c(C)n1[B-]2(F)F
- fluorescence lifetime (in Cc1ccccc1): 3.4 ns

SMILES: COc1nc(Nc2ccc3c4c(cccc24)C(=O)c2ccccc2-3)nc(OC)n1
- fluorescence lifetime (in CC#N): 9.2 ns
- fluorescence lifetime (in CC(C)=O): 8.5 ns
- fluorescence lifetime (in CC(C)O): 7.7 ns
- fluorescence lifetime (in CCCCOCCCC): 3.7 ns
- fluorescence lifetime (in CCOC(C)=O): 7.3 ns
- fluorescence lifetime (in CCOCC): 4.9 ns
- fluorescence lifetime (in CO): 7.4 ns
- fluorescence lifetime (in Cc1ccccc1): 5.6 ns
- fluorescence lifetime (in Clc1ccccc1): 7.4 ns
- fluorescence lifetime (in N#Cc1ccccc1): 7 ns
- fluorescence lifetime (in O=C1CCCCC1): 7.4 ns

SMILES: O=[N+]([O-])c1ccc(C#Cc2ccc3ccc(C#Cc4ccc([N+](=O)[O-])cc4)cc3c2)cc1
- fluorescence lifetime (in ClCCl): 0.27 ns

SMILES: CN(C)c1ccc(-c2cc(-c3cccs3)nc(-c3ccccc3)n2)cc1
- fluorescence lifetime (in ClC(Cl)Cl): 7 ns

SMILES: Nc1ccccc1
- fluorescence lifetime (in C1CCCCC1): 3.4 ns

SMILES: N#Cc1c(-n2c3ccc(-c4ccccc4)cc3c3cc(-c4ccccc4)ccc32)c(-n2c3ccccc3c3ccccc32)c(-n2c3ccc(-c4ccccc4)cc3c3cc(-c4ccccc4)ccc32)c(-n2c3ccccc3c3ccccc32)c1-n1c2ccc(-c3ccccc3)cc2c2cc(-c3ccccc3)ccc21
- fluorescence lifetime (in Cc1ccccc1): 5.2 ns

SMILES: CC(C)(C)c1ccc2c(c1)c1cc(C(C)(C)C)ccc1n2-c1cc[n+]2c(c1)-c1ccccc1O[B-]2(F)F
- fluorescence lifetime (in O=P(c1ccccc1)(c1ccccc1)c1ccccc1Oc1ccccc1P(=O)(c1ccccc1)c1ccccc1): 6.3 ns

SMILES: N#Cc1cccc2[nH]ccc12
- fluorescence lifetime (in C1CCOC1): 5.3 ns
- fluorescence lifetime (in C1COCCO1): 5.3 ns
- fluorescence lifetime (in CC#N): 5.4 ns
- fluorescence lifetime (in CC(C)O): 5.7 ns
- fluorescence lifetime (in CCO): 5.7 ns
- fluorescence lifetime (in CO): 5.8 ns
- fluorescence lifetime (in CS(C)=O): 7.4 ns
- fluorescence lifetime (in NC=O): 7.8 ns
- fluorescence lifetime (in O): 9.1 ns
- fluorescence lifetime (in OCC(F)(F)F): 6.3 ns
- fluorescence lifetime (in [2H]O[2H]): 9.3 ns

SMILES: CCCCn1c2ccc(C#N)cc2c2cc(C#N)cc(-c3ccc(N(c4ccccc4)c4ccccc4)cc3)c21
- fluorescence lifetime (in ClCCl): 1.91 ns

SMILES: COc1cc(OC)cc(C2=[O+][B-](F)(F)OC(c3ccc4cc(OC)ccc4c3)=C2)c1
- fluorescence lifetime (in ClCCl): 4.32 ns

SMILES: COc1cc(-c2cc(-c3ccc(C)cc3)nc3c(C#N)c(N4CCCC4)nc(N)c23)cc(OC)c1OC
- fluorescence lifetime (in CC#N): 10.7 ns
- fluorescence lifetime (in CC(C)=O): 10.4 ns
- fluorescence lifetime (in CC(C)O): 10.3 ns
- fluorescence lifetime (in CO): 8.46 ns
- fluorescence lifetime (in ClC(Cl)Cl): 12.8 ns
- fluorescence lifetime (in ClCCl): 12.6 ns
- fluorescence lifetime (in c1ccccc1): 12.5 ns

SMILES: O=c1oc2ccc3ccccc3c2nc1-c1ccccc1
- fluorescence lifetime (in c1ccccc1): 2.2 ns and 2.6 ns

SMILES: CN(C)c1ccc(C#Cc2ccc(-c3nc(C#N)c(C#N)n3C)cc2)cc1
- fluorescence lifetime (in C1CCCCC1): 1.2 ns
- fluorescence lifetime (in ClC(Cl)Cl): 1.7 ns

SMILES: Cc1cc(C)c(B(c2c(C)cc(C)cc2C)c2cc3cc(N(C)C)c4ccccc4c3c3c2ccc2ccccc23)c(C)c1
- fluorescence lifetime (in C1CCCCC1): 7 ns

SMILES: COc1ccc2c(c1)N(c1ccccc1-c1ccccc1)c1cc3c(cc1=N2)Oc1c(cc(C(C)(C)C)cc1C(C)(C)C)N=3
- fluorescence lifetime (in CCCCCC): 0.45 ns

SMILES: O=S1(=O)c2ccc(-c3c4ccccc4cc4ccccc34)cc2-c2cc(-c3c4ccccc4cc4ccccc34)ccc21
- fluorescence lifetime (in C1CCCCC1): 3.2 ns
- fluorescence lifetime (in CC#N): 4.3 ns
- fluorescence lifetime (in ClCCl): 3.7 ns

SMILES: CCC1=C(C)C2=C(C)c3cccn3[B-](F)(F)[N+]2=C1C
- fluorescence lifetime (in C1CCCCC1): 5.46 ns
- fluorescence lifetime (in CC(C)=O): 5.66 ns
- fluorescence lifetime (in CCO): 5.73 ns
- fluorescence lifetime (in CCOC(C)=O): 5.57 ns
- fluorescence lifetime (in CO): 5.78 ns
- fluorescence lifetime (in OCC(F)(F)F): 6.17 ns
